The text below walks through data of PubChem BioAssay AID1117275 (Broad Institute, 2014).

The experiment relates to orthopoxvirus-infected cells, imaging factories/early/late reporters. Nature of the experiment: orthopoxvirus gene expression and factory inhibitors, imaging, high MOI, single point, dry powder (AID 1117275). The conditions noted are these: at 10 µM; stronger effect = higher value.

Activity calls are given as the source filed them. The rule behind the calls is not given here.

As for `Cc1ccc(-c2ccc(CN(C)C[C@@H]3Oc4cc(C#C[C@@H](C)O)ccc4S(=O)(=O)N([C@@H](C)CO)C[C@@H]3C)cc2)cc1`, the late gene expression activity score is 73.

Regarding `C[C@@H](O)C#Cc1ccc2c(c1)O[C@@H](CN(C)Cc1ccc(-c3ccccc3Cl)cc1)[C@@H](C)CN([C@@H](C)CO)S2(=O)=O`, the late gene expression activity score is 71.

In the case of `Cc1ccccc1-c1ccc(CN(C)C[C@@H]2Oc3cc(C#C[C@@H](C)O)ccc3S(=O)(=O)N([C@@H](C)CO)C[C@@H]2C)cc1`, the late gene expression activity score was 67.

Take `C[C@@H](O)C#Cc1ccc2c(c1)O[C@@H](CN(C)Cc1ccc(-c3ccccc3)cc1)[C@@H](C)CN([C@@H](C)CO)S2(=O)=O`: the late gene expression activity score is 17 (inactive).

As to `Cc1cccc(-c2ccc(CN(C)C[C@@H]3Oc4cc(C#C[C@@H](C)O)ccc4S(=O)(=O)N([C@@H](C)CO)C[C@@H]3C)cc2)c1`, the late gene expression activity score is 78.

On to `C[C@@H](O)C#Cc1ccc2c(c1)O[C@@H](CN(C)S(=O)(=O)c1ccc(-c3ccccc3)cc1)[C@@H](C)CN([C@@H](C)CO)S2(=O)=O`, for which the late gene expression activity score is 86.
